Assay results: patent US20080104718A1, “Transgenic Non-Human Animal Models of Ischemia-Reperfusion Injury and Uses Thereof” (UNIVERSITY OF ROCHESTER, priority 2004, published 2008)
Each block holds one compound with its values, some of them ahead of it.

Legend:
PRECE = test: Relative quantitative RT-PCR of PRECE mRNA in hearts of STZ-injected mice; format: in vivo, mouse; settings: STZ injection, NLC mice, after 2 weeks
Procedure: Total RNA isolation, first-strand cDNA synthesis, and relative quantitative reverse transcription-polyinerase chain reaction (RT-PCR) using Ambion's Competimer technology were performed as we described (Aizawa et al., “Role of Phosphodiesterase 3 in NO/cGMP-Mediated Anti-inflammatory Effects in Vascular Smooth Muscle Cells,” Circ Res 93(5):406-413 (2003), which is hereby incorporated by reference in its entirety). Ambion's competimer technology allows one to modulate the amplification of 18S rRNA in the same linear range as the RNAs under study when amplified under the same condition. The following primers were used for PCR analysis: […]

p90RSK = p90RSK in vitro kinase assay on heart lysates of STZ-injected mice; format: in vivo, mouse
Procedure: Heart powder was homogenized with 3 vol of lysis buffer and centrifuged at 14,000 g (4° C. for 30 min), and protein concentration were determined. p90RSK was immunoprecipitated through the incubation of 1000 μg protein for each sample with 3 μl of the rabbit polyclonal anti-p90RSK (Santa Cruz, Santa Cruz, Calif.) antibody for 3 hrs, the addition of 40 μl of a 1:1 slurry of protein A/Sepharose beads to the extract/antibody mixture, and then incubation for 1 hour at 4° C. This complex was washed, twice each, in cell lysis buffer described above, LiCl buffer (500 mM LiCl 100 mM Tris-HCl (pH 7.6), 0.1% Triton X-100, 1 mM DTT) and wash buffer (20 mM HEPES, pH 7.2, 2 mM EGTA, 100 μM Na3VO4, 10 mM MgCl2, 1 mM DTT, 0.1% Triton X-100). After the final wash and pelleting, S6 kinase substrate peptide was used to determine p90RSK kinase activity, as previously described (Cavet et al., “14-3-3beta is a p90 Ribosomal S6 Kinase (RSK) Isoform 1-Binding Protein That Negatively Regulates RSK Kinase Activity,” J Biol Chem 278(20):18376-18383 (2003), which is hereby incorporated by reference in its entirety). The in vitro kinase assay was performed according to manufacture's protocol using a long S6 kinase substrate peptide (Upstate) to determine radiolabeled phosphate incorporation by scintillation counter. […]

[1] = Fasting blood glucose in STZ-induced diabetic mice; format: in vivo, mouse; settings: 2 weeks after STZ injection (vehicle 107±8 mg/dl)
Text: After a 6 hrs fast, basal blood samples were colleted from the tip of the tail. All blood samples were immediately measured for glucose using Prestige IQ, Blood Glucose Monitoring System (Home Diagnosis, Inc, Ft. Lauderdale, Fla.).
Previously, it was reported that PKCP activation is critical in H2O2-mediated p90RSK activation. […] Since the critical role of PKCP activation in diabetes has been extensively studied, it was investigated whether p90RSK is activated in Streptozotocin (STZ)-induced hyperglycemic mice. The current study used STZ-induced diabetic mice, a known useful model for the study of diabetes (Aizawa-Abe et al., “Pathophysiological Role of Leptin in Obesity-related Hypertension,” J Clin Invest 105(9):1243-1252 (2000), which is hereby incorporated by reference in its entirety).

H9c2 cells = test: Anoxia/reoxygenation (A/R)-induced apoptosis in transfected H9c2 cells (TUNEL); format: cell-based, rat
Text: Ad.LacZ (LACZ gene in an adenoviral vector) and Ad.DN-RSK were transduced into neonatal rat cardiomyocytes at varying MOI, as shown in FIG. 1. There was a concentration-dependent expression of DN-RSK (Fire 1) with expression greater than endogenous RSK at 100 MOI. WT-RSK, WT-NHE1, and NHE S703A cDNAs were inserted into pLL3.7-IRES-EGFP to make a pLL3.7-WT-RSK-IRES-EGFP expression vector. These vectors were transfected into H9c2 rat embryonic myoblasts using lipofectamine 2000 (Invitrogen, Carlsbad, Calif.). Cells were cultured for 24 hr to allow sufficient protein expression, then cells were exposed to anoxia. Cells were placed for 12 hr in the anoxia chamber (5% CO2 and 95% N2) and after 24 hr, reoxygenation was performed by changing the medium and placing cells in an air incubator (5% CO2 and 95% air). After 24 hr cell death was detected by TUNEL and by cell death detection ELISA kit (Roche Applied Sciences, Indianapolis, Ind.). Only transfected cells identified by EGFP expression were counted to compare the effects of vector alone (pLL3.7-IRES-EGFP) vs. WT-RSK, WT-NHE1 and MHE1-S703A (pLL3.7-WT-RSK-IRES-EGFP, pLL3.7-WT-NHE1-IRES-EGFP and pLL3.7-NHE1-S703A-IRES-EGFP).

NHE1 [2] = target: T1, NHE1 (Rattus norvegicus, UniProt P26431); test: NHE1 activity (rate of pHi recovery after acid load, BCECF-AM) in neonatal rat cardiomyocytes; format: cell-based; settings: 100 μM H2O2
T1 construct: Primary cultures of cardiac myocytes were prepared from ventricles of 1 to 3-day-old neonatal Wistar rats; endogenous in cells; host or cells: primary neonatal Wistar rat ventricular cardiomyocytes, transduced with Ad.LacZ or Ad.DN-RSK; NHE1 itself not transfected
T1 sequence (P26431 whole entry): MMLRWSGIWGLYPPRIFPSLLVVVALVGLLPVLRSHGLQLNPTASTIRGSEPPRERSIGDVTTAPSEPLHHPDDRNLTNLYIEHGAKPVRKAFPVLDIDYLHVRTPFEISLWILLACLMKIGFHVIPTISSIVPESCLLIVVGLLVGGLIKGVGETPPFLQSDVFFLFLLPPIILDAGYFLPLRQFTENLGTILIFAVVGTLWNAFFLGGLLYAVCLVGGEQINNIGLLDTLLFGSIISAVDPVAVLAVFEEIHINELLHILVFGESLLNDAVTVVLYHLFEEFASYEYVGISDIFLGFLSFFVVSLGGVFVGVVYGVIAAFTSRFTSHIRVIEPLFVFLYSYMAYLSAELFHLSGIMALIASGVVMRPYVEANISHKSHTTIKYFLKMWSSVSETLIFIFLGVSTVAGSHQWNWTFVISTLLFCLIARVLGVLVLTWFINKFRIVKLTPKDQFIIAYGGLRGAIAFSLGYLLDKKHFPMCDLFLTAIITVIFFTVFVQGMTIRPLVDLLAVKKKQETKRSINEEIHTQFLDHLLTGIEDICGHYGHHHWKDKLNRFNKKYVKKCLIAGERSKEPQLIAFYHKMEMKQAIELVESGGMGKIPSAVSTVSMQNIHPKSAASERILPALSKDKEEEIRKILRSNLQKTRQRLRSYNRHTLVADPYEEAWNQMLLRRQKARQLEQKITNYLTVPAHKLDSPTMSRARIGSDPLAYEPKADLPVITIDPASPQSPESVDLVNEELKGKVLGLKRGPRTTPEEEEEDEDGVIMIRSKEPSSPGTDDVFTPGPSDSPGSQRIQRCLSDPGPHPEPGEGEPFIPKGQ
Procedure: Primary cultures of cardiac myocytes were prepared from ventricles of 1 to 3-day-old neonatal Wistar rats (Akimoto et al., “Heparin and Heparin Sulfate Block Angiotensin II-Induced Hypertrophy in Cultured Neonatal Rat Cardiomyocytes. A possible Role of Intrinsic Heparin-Like Molecules in Regulation of Cardiomyocyte Hypertrophy,” Circulation 93:810-816 (1996), which is hereby incorporated by reference in its entirety). Briefly, cells were dissociated by collagenase II (Worthington Biochem, NJ) from the ventricles and plated at a density of 1×10^5 cells/cm^2 on 25 mm collagen-coated coverslips in Dulbecco's modified Eagle's medium (DMEM) with 10% fetal bovine serum and 10% horse serum. After 6 hrs of plating the isolated cardiomyocytes, 10 μM cytosine arabinoside (Ara C) was added and the cells were cultured 24 hrs, after which the culture medium was changed to DMEM with 10 μM Ara C in 10% fetal bovine serum.
Isolated neonatal cardiomyocytes were cultured on 25 mm glass coverslips. The intracellular pH indicator BCECF-AM was incubated with DMEM without FBS for 30 min at 37° C. (Ozkan et al., “A Rapid Method for Measuring Intracellular pH Using BCECF-AM,” Biochem Biophys Acta 1572: 143-148 (2002), which is hereby incorporated by reference in its entirety). […] BCECF-AM was excited at 490 and 440 nm, and the emission fluorescence recorded at 500 nm. […]

[3] = system: isolated heart from WT-p90RSK-Tg mice and non-transgenic littermate control (NLC) mice; test: Cardiac damage: CK and LDH release from the isolated heart after ischemia/reperfusion; parameters: species or system mouse; settings: captopril 50 μM pretreatment
Procedure: Creatine kinase (CK) and lactate dehydrogenase (LDH) were measured by the University of Rochester, Department of Clinical Chemistry, and reported in clinical indices (units/L) as means ±S.D.
For isolated heart from WT-p90RSK-Tg mice and non-transgenic littermate control (NLC) mice were studied using Langendorff preparation. Animals were anaesthetized with ketamine (50 mg/kg) and xylazine (2.5 mg/kg), i.p., and heparinized (5000 U/kg), i.p., to protect the heart against microthrombi. The chest was opened at the sternum and the heart, after cannulation with a 23 G phalanged stainless steel cannula, quickly removed. The heart was retrogradely perfused through the aorta in a non-circulating Langendorff apparatus with KH buffer (118 mM NaCl, 4.7 mM KCl, 1.2 mM MgSO4, 1.2 mM KH2PO4, 2.5 mM CaCl2, 25 mM NaHCO3, 0.5 mM Na-EDTA and 11 mM glucose) at a constant pressure of 80 mmHg. The buffer was saturated with 95% O2/5% CO2 (v/v, pH 7.4, 37° C.) for 50 min. A homemade water-filled balloon was inserted into the left ventricle through the left atrium and was adjusted to a left ventricular end-diastolic pressure of 5 mmHg during initial equilibration. The distal end of the catheter was connected to an ETH-200 Bridge Amplifier (CB Sciences, Inc) and PowerLab/200 (AD Instruments) data acquisition system via a pressure transducer (DELTRAN II, Utah Medical Products, Inc., Midvale, Utah). […]

NHE1 [4] = target: NHE1 (Homo sapiens, UniProt P19634); settings: cited from earlier work; for mortality in patients experiencing myocardial infarction: clinical trials GUARDIAN and ESCAMI
Sequence of NHE1 (Homo sapiens, UniProt P19634) (P19634 whole entry): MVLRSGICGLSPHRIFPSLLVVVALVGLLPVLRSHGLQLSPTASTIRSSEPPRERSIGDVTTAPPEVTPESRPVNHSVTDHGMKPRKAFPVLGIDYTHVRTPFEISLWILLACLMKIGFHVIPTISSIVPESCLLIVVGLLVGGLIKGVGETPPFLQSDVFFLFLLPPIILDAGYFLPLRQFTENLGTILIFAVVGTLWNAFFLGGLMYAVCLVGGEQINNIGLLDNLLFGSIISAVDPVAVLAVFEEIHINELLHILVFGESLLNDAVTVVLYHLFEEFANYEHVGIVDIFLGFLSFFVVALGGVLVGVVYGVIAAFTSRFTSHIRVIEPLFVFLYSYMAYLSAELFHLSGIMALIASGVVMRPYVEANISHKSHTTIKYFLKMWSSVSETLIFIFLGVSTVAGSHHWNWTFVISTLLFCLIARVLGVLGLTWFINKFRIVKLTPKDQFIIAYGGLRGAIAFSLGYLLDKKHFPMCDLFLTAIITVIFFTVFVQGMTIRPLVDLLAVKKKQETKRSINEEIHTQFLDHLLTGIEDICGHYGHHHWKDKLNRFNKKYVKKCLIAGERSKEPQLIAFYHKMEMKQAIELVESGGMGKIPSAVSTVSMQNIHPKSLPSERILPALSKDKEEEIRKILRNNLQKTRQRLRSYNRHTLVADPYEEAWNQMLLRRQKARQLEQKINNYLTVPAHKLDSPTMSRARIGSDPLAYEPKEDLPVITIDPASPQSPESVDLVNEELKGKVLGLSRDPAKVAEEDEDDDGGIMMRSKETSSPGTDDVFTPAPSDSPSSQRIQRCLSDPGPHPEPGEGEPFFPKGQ

Compound: CN(N=O)C(=O)N[C@H]1C(O)O[C@H](CO)[C@@H](O)[C@@H]1O (mixture of isomers) [STZ, Streptozotocin]
PRECE mRNA expression in heart (PRECE): increased
p90RSK activation (in vitro kinase assay) (p90RSK; DN-p90RSK-Tg mice + STZ): 8009±797 cpm
p90RSK activation (in vitro kinase assay) (p90RSK; NLC mice + STZ): 12991±1810 cpm
fasting blood glucose level [1]: 224 ± 5 mg/dL

Compound: CCN(c1nc(N)c(C(=O)NC(=N)N)nc1Cl)C(C)C [EIPA]
apoptosis (H9c2 cells; A/R + NHE-WT transfected H9c2 cells + EIPA): 39±4%
apoptosis (H9c2 cells; EIPA 5 μM + A/R (12 hr/24 hr) + WT-RSK transfected H9c2 cells): 29.9±5.2%

increase of NHE1 activity (NHE1 [2]; LacZ expressing cardiomyocytes): 3 fold
NHE1 activity (NHE1 [2]; LacZ expressing cardiomyocytes (basal 0.16±0.02)): 0.49±0.13 pHi/min
Compound: OO [H2O2]

Compound: C[C@H](CS)C(=O)N1CCC[C@H]1C(=O)O [captopril]
release of CK and LDH ([3]; NLC hearts, 40 min global ischemia and 25 min reperfusion): no beneficial effect
release of cardiac enzymes (CK and LDH) ([3]; WT-p90RSK-Tg hearts, 20 min ischemia and 25 min reperfusion): significantly reduced

Compound: CC(C)c1ccc(C(=O)NC(=N)N)cc1S(C)(=O)=O [cariporide]
mortality in patients experiencing myocardial infarction (NHE1 [4]): no significant reduction in mortality
improvement in LV function (NHE1 [4]; subgroup of patients who underwent coronary artery bypass grafting): 25%

Compound: Cc1cc(-n2cccc2)c(S(C)(=O)=O)cc1C(=O)NC(=N)N [eniporide]
mortality in patients experiencing myocardial infarction (NHE1 [4]): no significant reduction in mortality
